Results reported in US11111243B2, “Azaindole compounds as histone methyltransferase inhibitors” (GLOBAL BLOOD THERAPEUTICS, INC., priority 2017, dated 2021).
Counter-ions that a name gives are not always drawn.

test system: bone marrow CD34+ hematopoietic cells; experiment: not given; settings: human

Q: `COc1cc2c(cc1OCCCN1CCCC1)[nH]c1ccnc(C3=CCNCC3)c12` [Compound 66, 4-{8-methoxy-7-[3-(pyrrolidin-1-yl)propoxy]-5H-pyrido[4,3-b]indol-1-yl}-1,2,3,6-tetrahydropyridine bishydrochloride] was tested. Which “Fold Induction” value did it give?
A: The value was 1.3 fold.

biological target: T1, G9a (Homo sapiens, UniProt Q96KQ7); experiment: G9a AlphaLISA enzymatic activity assay; assay type: biochemical; settings: 0.15 nM G9a, 10 uM S-adenosyl-methionine, 100 nM biotinylated histone 3 peptide (1-21), 1 h room temperature
T1 sequence (Q96KQ7 1-1210): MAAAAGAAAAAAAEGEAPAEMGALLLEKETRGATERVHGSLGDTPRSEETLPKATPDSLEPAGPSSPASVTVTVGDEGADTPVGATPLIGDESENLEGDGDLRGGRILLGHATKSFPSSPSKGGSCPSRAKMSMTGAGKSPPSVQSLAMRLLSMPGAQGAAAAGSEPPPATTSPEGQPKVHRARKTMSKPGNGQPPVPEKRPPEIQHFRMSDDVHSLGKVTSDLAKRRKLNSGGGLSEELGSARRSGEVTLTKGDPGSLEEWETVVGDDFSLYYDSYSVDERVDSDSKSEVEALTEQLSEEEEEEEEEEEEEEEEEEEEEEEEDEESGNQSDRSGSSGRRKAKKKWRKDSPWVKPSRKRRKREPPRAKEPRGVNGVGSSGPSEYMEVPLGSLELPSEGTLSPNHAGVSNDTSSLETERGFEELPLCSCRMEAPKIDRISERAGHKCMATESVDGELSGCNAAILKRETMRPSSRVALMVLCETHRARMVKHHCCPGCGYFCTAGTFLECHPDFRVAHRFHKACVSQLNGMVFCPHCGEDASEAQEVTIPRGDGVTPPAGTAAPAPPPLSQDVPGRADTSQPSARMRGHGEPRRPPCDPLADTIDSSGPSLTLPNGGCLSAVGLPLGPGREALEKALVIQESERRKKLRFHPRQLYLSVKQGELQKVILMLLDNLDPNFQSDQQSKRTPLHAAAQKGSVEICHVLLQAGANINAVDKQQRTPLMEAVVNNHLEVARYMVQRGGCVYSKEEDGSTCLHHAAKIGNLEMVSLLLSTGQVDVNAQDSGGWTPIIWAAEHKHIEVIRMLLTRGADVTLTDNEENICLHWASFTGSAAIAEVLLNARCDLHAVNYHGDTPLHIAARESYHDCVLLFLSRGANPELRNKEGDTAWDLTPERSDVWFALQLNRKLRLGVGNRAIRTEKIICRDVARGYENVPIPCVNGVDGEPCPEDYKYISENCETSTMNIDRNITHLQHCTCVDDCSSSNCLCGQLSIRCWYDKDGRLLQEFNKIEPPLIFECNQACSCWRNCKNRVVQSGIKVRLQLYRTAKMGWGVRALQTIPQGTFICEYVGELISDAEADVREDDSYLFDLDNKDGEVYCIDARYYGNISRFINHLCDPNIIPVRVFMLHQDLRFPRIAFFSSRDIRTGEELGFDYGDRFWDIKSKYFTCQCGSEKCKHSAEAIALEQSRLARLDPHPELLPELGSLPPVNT
In short: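 Reaction of 0.15 nM G9a with 10 uM SAM and 100 nM biotinylated histone H3 (1-21) peptide in 50 mM Tris-HCl pH9, 50 mM NaCl, 0.01% Tween-20, 1 mM DTT, 1 h at room temperature. H3K9me2 detected by AlphaLISA (anti-H3K9me2 acceptor, streptavidin donor beads, 615 nm); IC50 from percent inhibition across dilutions.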

Q: `COc1cc2c(cc1OCCCN1CCCC1)[nH]c1ccnc(C3=CCNCC3)c12` [Compound 66, 4-{8-methoxy-7-[3-(pyrrolidin-1-yl)propoxy]-5H-pyrido[4,3-b]indol-1-yl}-1,2,3,6-tetrahydropyridine bishydrochloride] was tested. Which IC50 did it give?
A: The IC50 was 5.6 nM.

Q: Which IC50 does the source give for `COc1cc2c(cc1OCCCN1CCCC1)[nH]c1c(C)cnc(N3CCCC3)c12` [Compound 89, 1-{8-methoxy-4-methyl-7-[3-(pyrrolidin-1-yl)propoxy]-5H-pyrido[4,3-b]indol-1-yl}pyrrolidine hydrochloride] here?
A: The IC50 was 12 nM.

Q: `COc1cc2c(cc1OCCCN(C)C)[nH]c1ccnc(C)c12` [Compound 90, [3-({8-methoxy-1-methyl-5H-pyrido[4,3-b]indol-7-yl}oxy)propyl]dimethylamine hydrochloride] was tested. Which IC50 did it give?
A: Its IC50 is 7.1 nM.

Q: How did the IC50 turn out when `CCc1nccc2[nH]c3cc(OCCCN(C)C)c(OC)cc3c12` [Compound 91, [3-({1-ethyl-8-methoxy-5H-pyrido[4,3-b]indol-7-yl}oxy)propyl]dimethylamine hydrochloride] was run?
A: Its IC50 is 6.7 nM.

Q: `COc1cc2c(cc1OCCCN(C)C)[nH]c1ccnc(N3CCCC3)c12` [Compound 92, (3-{[8-methoxy-1-(pyrrolidin-1-yl)-5H-pyrido[4,3-b]indol-7-yl]oxy}propyl)dimethylamine hydrochloride] was tested. Which IC50 did it give?
A: Its IC50 is 51 nM.

Q: How did the IC50 turn out when `COc1cc2c(cc1OCCCN(C)C)[nH]c1ccnc(N(C)C)c12` [Compound 93, 7-[3-(dimethylamino)propoxy)-8-methoxy-N,N-dimethyl-5H-pyrido[4,3-b]indol-1-amine hydrochloride] was run?
A: The IC50 was 61 nM.

Q: How did the IC50 turn out when `COc1cc2c3cnccc3n(C)c2cc1OCCCN1CCCC1` [Compound 94, 1-[3-({8-methoxy-5-methyl-5H-pyrido[4,3-b]indol-7-yl}oxy)propyl]pyrrolidine hydrochloride] was run?
A: Its IC50 is 54 nM.

Q: How did the IC50 turn out when `COc1cc2c(cc1OCCCN(C)C)[nH]c1ccnc(SC)c12` [Compound 95, (3-{[8-methoxy-1-(methylsulfanyl)-5H-pyrido[4,3-b]indol-7-yl]oxy}propyl)dimethylamine hydrochloride] was run?
A: Its IC50 is 560 nM.

Q: For `COCCOc1nccc2[nH]c3cc(OCCCN4CCCC4)c(OC)cc3c12` [Compound 96, 1-(3-{[8-methoxy-1-(2-methoxyethoxy)-5H-pyrido[4,3-b]indol-7-yl]oxy}propyl)pyrrolidine trifluoroacetate], which IC50 is on record?
A: The IC50 was 3300 nM.

Q: With `COc1cc2c(cc1OCCCN1CCCC1)[nH]c1ccnc(O)c12` [Compound 97, 8-methoxy-7-(3-(pyrrolidin-1-yl)propoxy)-5H-pyrido[4,3-b]indol-1-ol trifluoroacetate] as the compound, how does the IC50 read?
A: Its IC50 is 68 nM.

Q: How did the IC50 turn out when `COc1cc2c(cc1OCCCN1CC3CC(C3)C1)[nH]c1ccncc12` [Compound 98, 3-[3-({8-methoxy-5H-pyrido[4,3-b]indol-7-yl}oxy)propyl]-3-azabicyclo[3.1.1]heptane hydrochloride] was run?
A: Its IC50 is 2800 nM.

Q: `COc1cc2c(cc1OCCCN1CCCC1)[nH]c1cc(C)ncc12` [Compound 99, 1-[3-({8-methoxy-3-methyl-5H-pyrido[4,3-b]indol-7-yl}oxy)propyl]pyrrolidine hydrochloride] was tested. Which IC50 did it give?
A: The IC50 was 16 nM.

Q: For `COc1cc2c(cc1OCCCN1CCCC1)[nH]c1ccnc(OC)c12` [Compound 100, 1-[3-({1,8-dimethoxy-5H-pyrido[4,3-b]indol-7-yl}oxy)propyl]pyrrolidine hydrochloride], which IC50 is on record?
A: Its IC50 is 380 nM.

Q: `COc1cc2c(cc1OCCCN1CCCC1)[nH]c1cc(C3CC3)ncc12` [Compound 101, 1-[3-({3-cyclopropyl-8-methoxy-5H-pyrido[4,3-b]indol-7-yl}oxy)propyl]pyrrolidine hydrochloride] was tested. Which IC50 did it give?
A: The IC50 was 120 nM.

Q: `CCN(CC)CCCOc1cc2[nH]c3ccnc(C4CC4)c3c2cc1OC` [Compound 102, [3-({1-cyclopropyl-8-methoxy-5H-pyrido[4,3-b]indol-7-yl}oxy)propyl]diethylamine hydrochloride] was tested. Which IC50 did it give?
A: The IC50 was 140 nM.
